Results from US7683168B2, “Compositions of novel opioid compounds and method of use thereof” (priority 2005, dated 2010).

Tests used:
mouse vas deferens = assay: electrically stimulated mouse vas deferens (MVD) ED50; format: cell-based; conditions: ED50, inhibition of electrically induced contractions
[1] = tested on: seizure-like convulsions in mice; assay: mouse seizure-like convulsions; format: in vivo
Method: Mouse Seizure-Like Convulsions and antinociception: The central (CNS) effects of the compound were tested with central delta receptor mediated seizure-like convulsions and central mu opioid receptor mediated antinociceptive effects in mice. Male CD-1 mice (Charles River, Raleigh, N.C.) weighing 20-25 g were used to determine the seizure-like convulsion and antinociception activities for compounds.
They were then observed for seizure-like convulsions for one hour following the treatment. A seizure-like event was recorded if a mouse had uncontrollable clonic (or tonic/clonic) muscle movements that encompassed its entire body, usually followed by a brief cataleptic period. Catalepsy was determined by placing the animal's front paws on a horizontal bar held 2-3 inches from the cage floor. Cataleptic animals made no attempt to remove their paws.

human mu opioid receptor = target: T1, human mu opioid receptor (Homo sapiens, UniProt P35372); assay: radioligand binding, human mu opioid receptor, CHO cell membranes; conditions: species not given, read-out: μ
T1 construct: purchased Perkin Elmer, Boston, Mass; 6110535; host or cells: CHO cells

human delta receptor = target: T2, human delta receptor (Homo sapiens, UniProt P41143); assay: radioligand binding, human delta receptor, HEK-293 cell membranes; conditions: cell not marked (rat), species not given, read-out: δ
T2 construct: purchased Perkin Elmer, Boston, Mass; 6110549; host or cells: HEK-293 cells
T2 sequence (P41143 whole entry): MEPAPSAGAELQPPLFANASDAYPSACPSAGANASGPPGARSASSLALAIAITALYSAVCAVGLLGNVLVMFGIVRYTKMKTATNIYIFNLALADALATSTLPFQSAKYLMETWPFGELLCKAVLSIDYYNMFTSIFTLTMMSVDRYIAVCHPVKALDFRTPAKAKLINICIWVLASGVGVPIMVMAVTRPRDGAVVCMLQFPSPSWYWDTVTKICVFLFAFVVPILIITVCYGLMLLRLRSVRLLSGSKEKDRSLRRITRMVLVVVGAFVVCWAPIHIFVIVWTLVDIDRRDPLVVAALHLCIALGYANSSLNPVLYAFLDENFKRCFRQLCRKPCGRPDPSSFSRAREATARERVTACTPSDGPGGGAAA

T1 sequence (P35372 whole entry): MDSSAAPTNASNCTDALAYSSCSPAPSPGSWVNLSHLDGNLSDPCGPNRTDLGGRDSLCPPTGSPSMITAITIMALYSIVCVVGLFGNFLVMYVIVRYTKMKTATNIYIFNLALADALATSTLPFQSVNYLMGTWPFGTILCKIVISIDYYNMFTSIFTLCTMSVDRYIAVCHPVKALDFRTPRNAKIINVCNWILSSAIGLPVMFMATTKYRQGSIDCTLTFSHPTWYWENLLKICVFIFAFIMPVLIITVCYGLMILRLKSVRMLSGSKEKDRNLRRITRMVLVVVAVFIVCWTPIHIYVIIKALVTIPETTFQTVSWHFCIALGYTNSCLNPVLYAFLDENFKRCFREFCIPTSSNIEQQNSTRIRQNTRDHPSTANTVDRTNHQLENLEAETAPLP

| SMILES | EC50 (mouse vas deferens) [nM] | Seiz. ([1]; 20 mg/kg IV) [% 20 mg/kg IV] | Ki (human mu opioid receptor) [nM] | Ki (human delta receptor) [nM] | Seiz. ([1]; 10 mg/kg IV) [% 10 mg/kg IV] |
| --- | --- | --- | --- | --- | --- |
| CCOC(=O)CN1CCCN(C(=O)c2cccc(C(c3cccc(O)c3)N3C[C@@H](C)N(CC4CC4)C[C@@H]3C)c2)CC1 (some centres unmarked) | 38.9 | 0 | 3.9 | 1.9 |  |
| C[C@@H]1CN([C@@H](c2cccc(O)c2)c2cccc(C(=O)N3CCN(CCCC(=O)O)CC3)c2)[C@@H](C)CN1CC1CC1 [Example 78, 4-(4-{3-[(R)-((2S,5R)-4-Cyclopropylmethyl-2,5-dimethyl-piperazin-1-yl)-(3-hydroxy-phenyl)-methyl]-benzoyl}-piperazin-1-yl)-butyric acid] | 26.6 |  | 194 | 10.2 | 0 |
| C=CCN1C[C@H](C)N([C@@H](c2cccc(O)c2)c2cccc(C(=O)N3CCN(CCCCCC(=O)O)CC3)c2)C[C@H]1C [Example 94, 6-(4-{3-[(R)-((2S,5R)-4-Allyl-2,5-dimethyl-piperazin-1-yl)-(3-hydroxy-phenyl)-methyl]-benzoyl}-piperazin-1-yl)-hexanoic acid] | 6.07 |  | 64.3 | 2.5 | 0 |
| CCOC(=O)CCCCN1CCCN(C(=O)c2cccc(C(c3cccc(O)c3)N3C[C@@H](C)N(Cc4cccc(F)c4)C[C@@H]3C)c2)CC1 (some centres unmarked) | 61.5 |  | 15.7 | 6.1 | 0 |
| C[C@@H]1CN(C(c2cccc(O)c2)c2cccc(C(=O)N3CCCN(CCCCC(=O)O)CC3)c2)[C@@H](C)CN1Cc1ccccc1 (some centres unmarked) | 3.28 |  | 23.5 | 20.4 | 0 |
| CCOC(=O)CCCCN1CCCN(C(=O)c2cccc(C(c3cccc(O)c3)N3C[C@@H](C)N(Cc4ccccc4)C[C@@H]3C)c2)CC1 (some centres unmarked) | 11.1 |  | 6.3 | 2.6 | 25 |
| C=CCN1C[C@H](C)N([C@@H](c2cccc(O)c2)c2cccc(C(=O)N3CCN(CC(=O)OCC)CC3)c2)C[C@H]1C [Example 63, (4-{3-[(R)-((2S,5R)-4-Allyl-2,5-dimethyl-piperazin-1-yl)-(3-hydroxy-phenyl)-methyl]-benzoyl}-piperazin-1-yl)-acetic acid ethyl ester] | 7.71 |  | 0.47 | 0.44 | 20 |
| C=CCN1C[C@H](C)N([C@@H](c2cccc(O)c2)c2cccc(C(=O)N3CCC(NCCCC(=O)O)CC3)c2)C[C@H]1C [Example 142, 4-(1-{3-[(R)-((2S,5R)-4-Allyl-2,5-dimethyl-piperazin-1-yl)-(3-hydroxy-phenyl)-methyl]-benzoyl}-piperidin-4-ylamino)-butyric acid] | 12.5 |  | 8.7 | 1.7 | 0 |
| C[C@@H]1CN([C@@H](c2cccc(O)c2)c2cccc(C(=O)N3CCN(CCCCC(=O)O)CC3)c2)[C@@H](C)CN1Cc1cccc(F)c1 [Example 88, 5-(4-{3-[(R)-((2S,5R)-4-(3-Fluorobenzyl)-2,5-dimethyl-piperazin-1-yl)-(3-hydroxy-phenyl)-methyl]-benzoyl}-piperazin-1-yl)-pentanoic acid] | 6.66 |  | 211 | 16.9 | 0 |
| C[C@@H]1CN(C(c2cccc(O)c2)c2cccc(C(=O)N3CCCN(CC(=O)O)CC3)c2)[C@@H](C)CN1CC1CC1 (some centres unmarked) | 65.2 | 0 | 33.1 | 6.8 |  |
| CCOC(=O)CCCCN1CCN(C(=O)c2cccc([C@H](c3cccc(O)c3)N3C[C@@H](C)N(Cc4ccccc4)C[C@@H]3C)c2)CC1 [Example 86, 5-(4-{3-[(R)-[(2S,5R)-4-Benzyl-2,5-dimethyl-piperazin-1-yl]-(3-hydroxy-phenyl)-methyl]-benzoyl}-piperazin-1-yl)-pentanoic acid ethyl ester] | 12.6 |  | 9.1 | 3.1 | 60 |
| C=CCN1C[C@H](C)N([C@@H](c2cccc(O)c2)c2cccc(C(=O)N3CCN(CCC(=O)O)CC3)c2)C[C@H]1C [Example 73, 3-(4-{3-[(R)-((2S,5R)-4-Allyl-2,5-dimethyl-piperazin-1-yl)-(3-hydroxy-phenyl)-methyl]-benzoyl}-piperazin-1-yl)-propionic acid] | 2.28 |  | 17.1 | 2.6 | 0 |
| C=CCN1C[C@H](C)N([C@@H](c2cccc(O)c2)c2cccc(C(=O)N3CCC[C@H]3C(=O)OC)c2)C[C@H]1C [Example 143, 1-{3-[(R)-((2S,5R)-4-Allyl-2,5-dimethyl-piperazin-1-yl)-(3-hydroxy-phenyl)-methyl]-benzoyl}-pyrrolidine-2-carboxylic acid (S)-methyl ester] | 1.79 |  | 0.5 | 1.5 | 10 |
| CCOC(=O)CCCN1CCCN(C(=O)c2cccc(C(c3cccc(O)c3)N3C[C@@H](C)N(Cc4ccccc4)C[C@@H]3C)c2)CC1 (some centres unmarked) | 10.6 |  | 1.2 | 50.1 | 30 |
| C=CCN1C[C@H](C)N([C@@H](c2cccc(O)c2)c2cccc(C(=O)N3CCN(C(=O)OCC)CC3)c2)C[C@H]1C [Example 57, 4-{3-[(R)-((2S,5R)-4-Allyl-2,5-dimethylpiperazin-1-yl)(3-hydroxy-phenyl)methyl]benzoyl}piperazine-1-carboxylic acid ethyl ester] | 5.15 |  | 0.8 | 0.81 | 40 |
| C[C@@H]1CN([C@@H](c2cccc(O)c2)c2cccc(C(=O)N3CCN(CCCC(=O)O)CC3)c2)[C@@H](C)CN1Cc1cccc(F)c1 [Example 82, 4-(4-{3-[(R)-((2S,5R)-4-(3-Fluorobenzyl)-2,5-dimethyl-piperazin-1-yl)-(3-hydroxy-phenyl)-methyl]-benzoyl}-piperazin-1-yl)-butyric acid] | 2.65 |  | 13.8 | 31.1 | 0 |
| C=CCN1C[C@H](C)N([C@@H](c2cccc(O)c2)c2cccc(C(=O)N3CCN(CC(=O)O)CC3)c2)C[C@H]1C [Example 64, (4-{3-[(R)-((2S,5R)-4-Allyl-2,5-dimethyl-piperazin-1-yl)-(3-hydroxy-phenyl)-methyl]-benzoyl}-piperazin-1-yl)-acetic acid] | 5.18 |  | 9 | 0.79 | 30 |
| C=CCN1C[C@H](C)N([C@@H](c2cccc(O)c2)c2cccc(C(=O)N3CCN(CCC(=O)OCC)CC3)c2)C[C@H]1C [Example 72, 3-(4-{3-[(R)-((2S,5R)-4-Allyl-2,5-dimethyl-piperazin-1-yl)-(3-hydroxy-phenyl)-methyl]-benzoyl}-piperazin-1-yl)-propionic acid ethyl ester] | 8.03 |  | 2.4 | 0.61 | 20 |
| C[C@@H]1CN([C@@H](c2cccc(O)c2)c2cccc(C(=O)N3CCN(CCCCCCC(=O)O)CC3)c2)[C@@H](C)CN1Cc1ccccc1 [Example 111, 7-(4-{3-[(R)-((2S,5R)-4-Benzyl-2,5-dimethyl-piperazin-1-yl)-(3-hydroxy-phenyl)-methyl]-benzoyl}-piperazin-1-yl)-heptanoic acid] | 3.82 |  | 8.7 | 0.77 | 0 |
| CCOC(=O)CCCN1CCN(C(=O)c2cccc([C@H](c3cccc(O)c3)N3C[C@@H](C)N(Cc4ccccc4)C[C@@H]3C)c2)CC1 [Example 79, 4-(4-{3-[(R)-((2S,5R)-4-Benzyl-2,5-dimethyl-piperazin-1-yl)-(3-hydroxy-phenyl)-methyl]-benzoyl}-piperazin-1-yl)-butyric acid ethyl ester] | 3.95 |  | 1.3 | 3.7 | 80 |
| CCOC(=O)CCCCCN1CCN(C(=O)c2cccc([C@H](c3cccc(O)c3)N3C[C@@H](C)N(Cc4ccccc4)C[C@@H]3C)c2)CC1 [Example 96, 6-(4-{3-[(R)-((2S,5R)-4-Benzyl-2,5-dimethyl-piperazin-1-yl)-(3-hydroxy-phenyl)-methyl]-benzoyl}-piperazin-1-yl)-hexanoic acid ethyl ester] | 10.4 |  | 2 | 6.9 | 60 |
| C=CCN1C[C@H](C)N([C@@H](c2cccc(O)c2)c2cccc(C(=O)N3CCNCC3)c2)C[C@H]1C [Example 58, {3-[(R)-((2S,5R)-4-Allyl-2,5-dimethyl-piperazin-1-yl)-(3-hydroxy-phenyl)-methyl]-phenyl}-piperazin-1-yl-methanone] | 12.1 |  | 1.1 | 5.1 | 0 |
| C=CCN1C[C@H](C)N([C@@H](c2cccc(O)c2)c2cccc(C(=O)N3CCN(CCCC(=O)OCC)CC3)c2)C[C@H]1C [Example 74, (4-{3-[(R)-((2S,5R)-4-Allyl-2,5-dimethyl-piperazin-1-yl)-(3-hydroxy-phenyl)-methyl]-benzoyl}-piperazin-1-yl)-butyric acid ethyl ester] | 23.3 |  | 1.95 | 123 | 10 |
